Experiments:
CFA-injected mice [1] = assay: plantar test (thermal hyperalgesia) in CFA-induced chronic inflammatory pain; type: in vivo, male C57BL/6 mice
Procedure: (§1) The experiments were performed in male C57BL/6 mice acquired from Harlan Laboratories (Barcelona, Spain). All mice weighing 21 to 25 g were housed under 12-h/12-h light/ dark conditions in a room with controlled temperature (22° C) and humidity (66%). Animals had free access to food and water and were used after a minimum of 7 days acclimatization to the housing conditions. All experiments were performed according with the Guide for the Care and Use of Laboratory Animals as adopted and promulgated by the U.S. National Institutes of Health and approved by the local Committee of Animal Use and Care of the Autonomous University of Barcelona. All efforts were made to minimize animal suffering and to reduce the number of animals used.
(§2) Chronic inflammatory pain was induced by the subplantar injection of 30 µl of CFA (Sigma) into the right hind paw under brief anesthetic conditions with isoflurane according to previous works (Leánez et al., Eur J Pharmacol, 2009, 602:41-49; Hervera et al., Naunyn Schmiedebergs Arch Pharmacol, 2009, 380:345-352). All experiments were performed at 10 days after CFA injection. At this time point, all of these animals developed a local inflammatory reaction, allodynia to mechanical stimuli and hyperalgesia to noxious thermal stimuli, as previously reported (Negrete et al., PLoS One, 2011, 6:e26688). The development of mechanical allodynia and thermal hyperalgesia was evaluated by using the von Frey filaments and plantar tests, respectively. All animals were tested in each paradigm before and at 10 days after CFA-injection.
Thermal hyperalgesia was assessed as previously reported by Hargreaves et al. (Pain, 1988, 32:77-88). Paw withdrawal latency in response to radiant heat was measured using the plantar test apparatus (Ugo Basile, Varese, Italy). Briefly, mice were placed in methacrylate cylinders (20 cm high x 9 cm diameter) positioned on a glass surface. The heat source was positioned under the plantar surface of the hind paw and activated with a light beam intensity, chosen in preliminary studies to give baseline latencies from 8 to 10 s in control mice. A cut-off time of 12 s was used to prevent tissue damage in absence of response. The mean paw withdrawal latencies from the ipsilateral and contralateral hind paws were determined from the average of three separate trials, taken at 5 min intervals to prevent thermal sensitization and behavioral disturbances. Animals were habituated to the environment for 1 h before the experiment to become quiet and to allow testing. […]
In another set of experiments, we evaluated the mechanical antiallodynic and thermal antihyperalgesic effects produced by the subplantar administration of 290 µg of SnPP alone or combined with the subplantar administration of a high dose of DPDPE (150 µg) or JWH-015 (300 µg) in the contralateral and ipsilateral paw of CFA-injected animals (n = 6 animals per group).
The reversibility of the antinociceptive effects produced by the subplantar administration of DPDPE (150 µg) or JWH-015 (300 µg), as doses that produce the maximal antiallodynic and antihyperalgesic effects after peripheral inflammation, by their subplantar coadministration with specific (naltrindole; 50 µg; AM630; 60 µg) and an unspecific peripheral opioid antagonist (naloxone methiodide, NX-ME; 50 µg) or a cannabinoid 1 receptor (CB1R) antagonist (AM251; 150 µg) (Hervera et al., J Pharmacol Exp Ther, 2010, 334: 887-896; Hervera et al., Mol Pain, 2011, 7:25) was also evaluated (n = 6 animals per group). The doses of all tested opioid and cannabinoid receptor antagonists were selected according to our previous data in animals with chronic pain (Hervera et al., Naunyn Schmiedebergs Arch Pharmacol, 2009, 380:345-352; Hervera et al., Psychopharmacology, 2013, 228:463-477; Negrete et al., PLoS One, 2011, 6:e26688).
CoPP and SnPP were dissolved in DMSO (1 % solution in saline). JWH-015, AM630, AM251 were dissolved in DMSO (50 % solution in saline). […]

CFA-injected mice [2] = assay: von Frey filaments test (mechanical allodynia) in CFA-induced chronic inflammatory pain; type: in vivo, male C57BL/6 mice
Procedure: as §1, §2
Mechanical allodynia was quantified by measuring the hind paw withdrawal response to von Frey filament stimulation. In brief, animals were placed in methacrylate cylinders (20 cm high, 9 cm diameter; Servei Estació, Barcelona, Spain) with a wire grid bottom through which the von Frey filaments (North Coast Medical, Inc., San Jose, CA) with a bending force in the range of 0.008-3.5 g were applied by using a modified version of the up-down paradigm, as previously reported by Chaplan et al. (J Neurosci Methods, 1994, 53:55-63). The filament of 0.4 g was used first and the 3.0 g filament was used as a cut-off. Then, the strength of the next filament was decreased or increased according to the response. The threshold of response was calculated from the sequence of filament strength used during the up-down procedure by using an Excel program (Microsoft Iberia SRL, Barcelona, Spain) that includes curve fitting of the data. Clear paw withdrawal, shaking, or licking of the paw was considered as a nociceptive-like response. Both ipsilateral and contralateral hind paws were tested. Animals were allowed to habituate for 1 h before testing in order to allow an appropriate behavioral immobility.
In a first set of experiments, we assessed the expression of inflammatory pain induced by the subplantar administration of CFA as previously used (Leánez et al., Eur J Pharmacol, 2009, 602:41-49). After the habituation period, baseline responses were established in the following sequence: von Frey filaments and plantar test. After baseline measurements, inflammatory pain was induced and animals were again tested in each paradigm at day 10 after CFA injection by using the same sequence as for baseline responses. The contralateral paws were used as controls (n = 6 animals per group).
In a second set of experiments, we evaluated the mechanical antiallodynic and thermal antihyperalgesic effects of the subplantar administration of different doses of a specific DOR (DPDPE) or CB2R (JWH-015) agonist and their respective vehicles in the contralateral and ipsilateral paw of CFA-injected animals (n = 6 animals per group). […]

cobalt (III) protoporphyrin IX chloride [CoPP]
effect of CoPP treatment on the thermal antihyperalgesic effects of DPDPE (CFA-injected mice [1]; CoPP 10 mg/kg intraperitoneal, DPDPE 50 µg subplantar, P < 0.001 (Fig. 3B)): significantly increased | effect of CoPP treatment on the antihyperalgesic effects of JWH-015 (CFA-injected mice [1]; CoPP 10 mg/kg intraperitoneal, JWH-015 30 µg subplantar, P < 0.001 (Fig. 4B)): significantly enhanced | thermal hyperalgesia induced by peripheral inflammation (CFA-injected mice [1]; CoPP alone 10 mg/kg intraperitoneal, ipsilateral paw, P < 0.001 versus vehicle (Fig. 3B)): significantly attenuated | Thermal hyperalgesia, Experimental results (%) (maximal possible effect) (CFA-injected mice [1]; Table 5, ipsilateral paw, CoPP 10 mg/kg intraperitoneal, DPDPE 50 µg subplantar, vehicle 4.0): 26.8% | Thermal hyperalgesia, Experimental results (%) (maximal possible effect) (CFA-injected mice [1]; Table 6, ipsilateral paw, CoPP 10 mg/kg intraperitoneal, JWH-015 30 µg subplantar, vehicle 4.9): 22.3% | effect of CoPP treatment on the mechanical antiallodynic effects of DPDPE (CFA-injected mice [2]; CoPP 10 mg/kg intraperitoneal, DPDPE 50 µg subplantar (Fig. 3A)): did not alter | effect of CoPP treatment on the antiallodynic effects of JWH-015 (CFA-injected mice [2]; CoPP 10 mg/kg intraperitoneal, JWH-015 30 µg subplantar, P < 0.001 (Fig. 4A)): significantly enhanced | mechanical allodynia induced by peripheral inflammation (CFA-injected mice [2]; CoPP alone 10 mg/kg intraperitoneal, ipsilateral paw, P < 0.001 versus vehicle (Fig. 3A)): significantly attenuated | Mechanical allodynia, Experimental results (%) (maximal possible effect) (CFA-injected mice [2]; Table 5, ipsilateral paw, CoPP 10 mg/kg intraperitoneal, DPDPE 50 µg subplantar, vehicle 5.8): 27.1% | Mechanical allodynia, Experimental results (%) (maximal possible effect) (CFA-injected mice [2]; Table 6, ipsilateral paw, CoPP 10 mg/kg intraperitoneal, JWH-015 30 µg subplantar, vehicle 4.1): 25.3%
